{"source": "the OPERA property sets (Mansouri et al. 2018)", "data": [{"smiles": "FCCCl", "values": [{"measurement": "solubility", "setting": "25 °C", "value": 296, "unit": "mM"}]}, {"smiles": "FC(F)(Cl)CCl", "values": [{"measurement": "solubility", "setting": "24 °C", "value": 6.3, "unit": "mM"}]}, {"smiles": "CCCl", "values": [{"measurement": "solubility", "setting": "25 °C", "value": 88, "unit": "mM"}]}, {"smiles": "FC(F)(Br)C(F)(F)Br", "values": [{"measurement": "solubility", "setting": "25 °C", "value": 0.0115, "unit": "mM"}]}, {"smiles": "FC(F)(F)C(Cl)Br", "note": "(stereo not given)", "values": [{"measurement": "solubility", "setting": "25 °C", "value": 19.8, "unit": "mM"}]}, {"smiles": "ClC(Br)C(Cl)Br", "note": "(stereo not given)", "values": [{"measurement": "solubility", "setting": "20 °C", "value": 2.73, "unit": "mM"}]}, {"smiles": "ClC(Br)CBr", "note": "(stereo not given)", "values": [{"measurement": "solubility", "setting": "20 °C", "value": 2.79, "unit": "mM"}]}, {"smiles": "ClCCBr", "values": [{"measurement": "solubility", "setting": "25 °C", "value": 48.1, "unit": "mM"}]}, {"smiles": "FC(F)(F)C(Cl)Cl", "values": [{"measurement": "solubility", "setting": "25 °C", "value": 13.7, "unit": "mM"}]}, {"smiles": "ClC(Cl)=C(Cl)Cl", "values": [{"measurement": "solubility", "setting": "25 °C", "value": 1.21, "unit": "mM"}]}, {"smiles": "BrCC(Br)Br", "values": [{"measurement": "solubility", "setting": "20 °C", "value": 1.87, "unit": "mM"}]}, {"smiles": "CC(Cl)(Cl)Cl", "values": [{"measurement": "solubility", "setting": "25 °C", "value": 11.2, "unit": "mM"}]}, {"smiles": "ClCC(Cl)Cl", "values": [{"measurement": "solubility", "setting": "25 °C", "value": 33.1, "unit": "mM"}]}, {"smiles": "CCI", "values": [{"measurement": "solubility", "setting": "25 °C", "value": 25.1, "unit": "mM"}]}, {"smiles": "ClC(Cl)C(Cl)(Cl)Cl", "values": [{"measurement": "solubility", "setting": "25 °C", "value": 2.37, "unit": "mM"}]}, {"smiles": "ClCC(Cl)(Cl)Cl", "values": [{"measurement": "solubility", "setting": "25 °C", "value": 6.38, "unit": "mM"}]}, {"smiles": "C=C(Cl)Cl", "values": [{"measurement": "solubility", "setting": "25 °C", "value": 23.2, "unit": "mM"}]}, {"smiles": "CCBr", "values": [{"measurement": "solubility", "setting": "25 °C", "value": 82, "unit": "mM"}]}, {"smiles": "BrC(Br)C(Br)Br", "values": [{"measurement": "solubility", "setting": "25 °C", "value": 1.91, "unit": "mM"}]}, {"smiles": "CC(F)(Cl)Cl", "values": [{"measurement": "solubility", "setting": "25 °C", "value": 3.59, "unit": "mM"}]}]}
